Test results: patent US8367647B2, “Treatment of meconium aspiration syndrome with estrogens” (Pantarhei Bioscience B.V., priority 2007, dated 2013)

System: newborn piglets
Experiment: Meconium aspiration model: newborn piglets given human meconium by deep intratracheal instillation, monitored 7 days
Assay type: in vivo
Conditions: 3 ml/kg of 20% human meconium intratracheal, daily oral dosage of 0.7 mg/kg started within one hour after birth, versus placebo
Procedure: Immediately after birth, twelve newborn piglets are given 3 ml/kg of a 20% solution of human meconium by deep intratracheal instillation. Next, the piglets are randomly assigned to two groups of each six animals. Within one hour after birth, one group is treated with a daily oral dosage of 0.7 mg/kg estetrol whilst the control group is treated with placebo. During the next 7 days the condition of the piglets belonging to both groups are monitored. […] Example 1 was repeated, except that this time one group was treated with a daily oral dosage of 30 μg/kg estradiol instead of estetrol.

SMILES: C[C@]12CC[C@@H]3c4ccc(O)cc4CC[C@H]3[C@@H]1[C@@H](O)[C@@H](O)[C@@H]2O [estetrol]
- incidence of severe complications of MAS versus control group: substantially lower
